According to ChEMBL document CHEMBL1153306, “Relation between lipophilicity of alkyl gallates and antifungal activity against yeasts and filamentous fungi” (Bioorg Med Chem Lett, 2009):
Values after ≈ are worked out from the molar mass of the structure shown.

How the values were obtained:
Aspergillus fumigatus = experiment: Antimicrobial activity against Aspergillus fumigatus after 48 hrs by broth microdilution technique; format: functional
Candida tropicalis = experiment: Antifungal activity against Candida tropicalis after 48 hrs by broth microdilution technique; format: functional
Aspergillus niger = experiment: Antimicrobial activity against Aspergillus niger after 48 hrs by broth microdilution technique; format: functional
Saccharomyces cerevisiae = experiment: Antifungal activity against Saccharomyces cerevisiae after 48 hrs by broth microdilution technique; format: functional
Cryptococcus neoformans = experiment: Antifungal activity against Cryptococcus neoformans after 48 hrs by broth microdilution technique; format: functional
Candida albicans = experiment: Antifungal activity against Candida albicans after 48 hrs by broth microdilution technique; format: functional
Epidermophyton floccosum = experiment: Antimicrobial activity against Epidermophyton floccosum after 48 hrs by broth microdilution technique; format: functional
Aspergillus flavus = experiment: Antimicrobial activity against Aspergillus flavus after 48 hrs by broth microdilution technique; format: functional
Trichophyton rubrum = experiment: Antimicrobial activity against Trichophyton rubrum after 48 hrs by broth microdilution technique; format: functional
[1] = tested on: Trichophyton mentagrophytes; experiment: Antimicrobial activity against Trichophyton mentagrophytes after 48 hrs by broth microdilution technique; format: functional
Nannizzia gypsea = experiment: Antimicrobial activity against Microsporum gypseum after 48 hrs by broth microdilution technique; format: functional
[2] = Lipophilicity, log P of the compound; format: physicochemical; conditions: octanol/water

Row | SMILES | MIC (Aspergillus fumigatus) [µg/mL] | MIC (Candida tropicalis) [µg/mL] | MIC (Aspergillus niger) [µg/mL] | MIC (Saccharomyces cerevisiae) [µg/mL] | MIC (Cryptococcus neoformans) [µg/mL] | MIC (Candida albicans) [µg/mL] | MIC (Epidermophyton floccosum) [µg/mL] | MIC (Aspergillus flavus) [µg/mL] | MIC (Trichophyton rubrum) [µg/mL] | MIC [1] [µg/mL] | MIC (Nannizzia gypsea) [µg/mL] | logP [2]
1 | CCCCCCCCCCOC(=O)c1cc(O)c(O)c(O)c1 [DECYL GALLATE] | 100 (≈ 322 µM) | 100 (≈ 322 µM) | > 250 | 100 (≈ 322 µM) | 50 (≈ 161 µM) | 100 (≈ 322 µM) | 25 (≈ 80.5 µM) | > 250 | 12.5 (≈ 40.3 µM) | 50 (≈ 161 µM) | 50 (≈ 161 µM) | 
2 | CCCCOC(=O)c1cc(O)c(O)c(O)c1 [BUTYL GALLATE] | > 250 | > 250 | > 250 | > 250 | > 250 | > 250 | 100 (≈ 442 µM) | > 250 | 50 (≈ 221 µM) | 100 (≈ 442 µM) | 50 (≈ 221 µM) | 
3 | CN(C/C=C/C#CC(C)(C)C)Cc1cccc2ccccc12 [TERBINAFINE] |  |  |  |  |  |  | 0.004 (≈ 0.0137 µM) |  | 0.01 (≈ 0.0343 µM) | 0.04 (≈ 0.137 µM) | 0.04 (≈ 0.137 µM) | 
4 | CCOC(=O)c1cc(OC)c(OC)c(OC)c1 [ETHYLTRIMETHOXY BENZOATE] | > 250 | > 250 | > 250 | > 250 | > 250 | > 250 | > 250 | > 250 | > 250 | > 250 | > 250 | 
5 | CCCCCCCCCCCCCCCCCCOC(=O)c1cc(O)c(O)c(O)c1 [OCTADECYL GALLATE] | > 250 | > 250 | > 250 | > 250 | > 250 | > 250 | 250 (≈ 592 µM) | > 250 | 250 (≈ 592 µM) | > 250 | > 250 | 
6 | C[C@@H]1[C@H](O)[C@@H](C)/C=C/C=C/C=C/C=C/C=C/C=C/C=C/[C@H](O[C@@H]2O[C@H](C)[C@@H](O)[C@H](N)[C@@H]2O)C[C@@H]2O[C@](O)(C[C@@H](O)C[C@@H](O)[C@H](O)CC[C@@H](O)C[C@@H](O)CC(=O)O[C@H]1C)C[C@H](O)[C@H]2C(=O)O [AMPHOTERICIN B] | 0.5 (≈ 0.541 µM) | 0.5 (≈ 0.541 µM) | 0.5 (≈ 0.541 µM) | 0.5 (≈ 0.541 µM) | 0.25 (≈ 0.271 µM) | 0.78 (≈ 0.844 µM) |  | 0.5 (≈ 0.541 µM) |  |  |  | 
7 | CCCCCCCCOC(=O)c1cc(O)c(O)c(O)c1 [OCTYL_GALLATE] | 62.5 (≈ 221 µM) | 62.5 (≈ 221 µM) | 62.5 (≈ 221 µM) | 50 (≈ 177 µM) | 50 (≈ 177 µM) | 62.5 (≈ 221 µM) | 6.25 (≈ 22.1 µM) | 62.5 (≈ 221 µM) | 6.25 (≈ 22.1 µM) | 12.5 (≈ 44.3 µM) | 6.25 (≈ 22.1 µM) | 3.7
8 | CCCCCCCCCCCCOC(=O)c1cc(O)c(O)c(O)c1 [DODECYL GALLATE] | > 250 | > 250 | > 250 | > 250 | > 250 | > 250 |  | > 250 | 50 (≈ 148 µM) | 50 (≈ 148 µM) | 100 (≈ 295 µM) | 
9 | CCCCCCCOC(=O)c1cc(O)c(O)c(O)c1 [HEPTYL GALLATE] | 100 (≈ 373 µM) | 100 (≈ 373 µM) | 100 (≈ 373 µM) | 100 (≈ 373 µM) | 62.5 (≈ 233 µM) | 100 (≈ 373 µM) | 6.25 (≈ 23.3 µM) | 100 (≈ 373 µM) | 6.25 (≈ 23.3 µM) | 12.5 (≈ 46.6 µM) | 6.25 (≈ 23.3 µM) | 
10 | Oc1cccc(O)c1O [PYROGALLOL] | 100 (≈ 793 µM) | 100 (≈ 793 µM) | > 250 | 100 (≈ 793 µM) | 62.5 (≈ 496 µM) | 100 (≈ 793 µM) | 12.5 (≈ 99.1 µM) | > 250 | 25 (≈ 198 µM) | 50 (≈ 396 µM) | 50 (≈ 396 µM) | 
11 | COc1cc(C(=O)O)cc(OC)c1OC [3,4,5-TRIMETHOXYBENZOIC ACID] | > 250 | > 250 | > 250 | > 250 | > 250 | > 250 | > 250 | > 250 | > 250 | > 250 | > 250 | 
